Like-named read-outs stand apart in the source and are kept apart here.
Columns and labels:
OCT2 A270S variant = assay: Stereoselective uptake into OCT2 A270S variant-overexpressing HEK293 cells; conditions: OCT2 wild-type versus A270S, 100 μM racemic substance, two minutes;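 further: uptake into HEK293 cells stably overexpressing human OCT2 variants, intracellular enantiomers quantified by chiral HPLC-MS/MS and normalized to total protein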
OCT3 = target: T1, OCT3 (Homo sapiens, UniProt O75751); assay: Stereoselective uptake into OCT3-overexpressing HEK293 cells; conditions: for Clint ± SEM: quotient of vmax over Km; for Stereoselectivity Vmax: given as for (R) or for 1;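 on all read-outs here: intracellular accumulation in HEK293 cells measured by chiral HPLC-MS/MS after a 2 min substrate exposure at 37 °C, uptake normalized to total protein (bicinchoninic acid assay)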
T1 sequence (O75751 1-556): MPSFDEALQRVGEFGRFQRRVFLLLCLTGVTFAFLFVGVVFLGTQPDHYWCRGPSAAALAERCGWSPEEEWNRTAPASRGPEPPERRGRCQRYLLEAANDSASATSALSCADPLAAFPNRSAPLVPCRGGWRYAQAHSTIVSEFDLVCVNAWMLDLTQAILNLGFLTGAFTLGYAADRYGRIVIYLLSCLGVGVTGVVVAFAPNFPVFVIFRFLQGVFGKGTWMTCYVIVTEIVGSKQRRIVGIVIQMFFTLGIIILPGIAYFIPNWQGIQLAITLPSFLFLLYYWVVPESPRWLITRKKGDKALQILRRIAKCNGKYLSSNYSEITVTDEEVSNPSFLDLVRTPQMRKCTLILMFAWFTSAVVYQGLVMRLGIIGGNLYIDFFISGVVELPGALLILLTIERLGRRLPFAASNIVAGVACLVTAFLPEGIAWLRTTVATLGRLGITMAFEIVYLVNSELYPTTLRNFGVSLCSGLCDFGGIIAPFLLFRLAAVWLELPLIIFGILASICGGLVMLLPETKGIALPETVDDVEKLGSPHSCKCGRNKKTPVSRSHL

OCT2 [1] = target: T2, OCT2 (Homo sapiens, UniProt O15244, S270A); assay: Stereoselective uptake into OCT2 (wild-type)-overexpressing HEK293 cells; conditions: OCT2, ratio between enantiomers
T2 sequence (O15244 1-555 S270A): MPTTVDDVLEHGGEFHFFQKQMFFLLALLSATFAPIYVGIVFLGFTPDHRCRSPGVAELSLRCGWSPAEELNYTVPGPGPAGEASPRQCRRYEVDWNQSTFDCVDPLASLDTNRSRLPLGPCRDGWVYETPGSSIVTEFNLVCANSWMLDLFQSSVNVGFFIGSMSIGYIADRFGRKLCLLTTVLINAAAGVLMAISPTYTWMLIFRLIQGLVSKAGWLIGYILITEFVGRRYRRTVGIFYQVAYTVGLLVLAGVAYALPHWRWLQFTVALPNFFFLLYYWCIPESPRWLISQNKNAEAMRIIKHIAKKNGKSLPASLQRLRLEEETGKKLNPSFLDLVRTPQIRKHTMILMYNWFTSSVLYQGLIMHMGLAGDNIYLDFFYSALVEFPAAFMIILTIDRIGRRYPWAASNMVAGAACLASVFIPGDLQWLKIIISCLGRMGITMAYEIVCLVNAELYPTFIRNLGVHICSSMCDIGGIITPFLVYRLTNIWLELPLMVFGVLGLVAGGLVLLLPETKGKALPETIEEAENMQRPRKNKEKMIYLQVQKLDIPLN
Protocol: (§1) All transport experiments were carried out in HEK293 cells stably overexpressing human MATs or OCTs. […] All cells were regularly cultivated in DMEM supplemented with 10% (v/v) FCS, penicillin (100 U/mL) and streptomycin (100 μg/mL)and kept in culture for no longer than 30 passages.
(§2) For the uptake experiments, 300,000 cells were plated in poly-D-lysine precoated 24-well plates 48 h ahead of the transport experiment. On the day of experiment, cells were initially washed once with 37 °C pre-warmed HBSS+ (Hanks buffered salt solution supplemented with 10 mM HEPES) and subsequently incubated with the substrates dissolved in pre-warmed HBSS+ for exactly two minutes. Incubation was stopped by adding ice-cold HBSS+ followed by two washing steps. After this, cells were lysed with 80% acetonitrile containing 10 ng/mL milnacipran as internal standard for high-performance liquid chromatography coupled to tandem mass spectrometry (HPLC-MS/MS) analysis. For every experiment, two additional wells per cell line were lysed using RIPA buffer for protein quantification. Total protein was quantified using the bicinchoninic acid assay [42]. This was later used for normalization of the uptake data.
(§3) Intracellularly accumulated test substances were quantified by HPLC-MS/MS analysis using a Shimadzu Nexera HPLC system with a SIL-30AC autosampler, a CTO-20AC column oven, a LC-30AD pump, and a CBM-20A controller (Shimadzu, Kyoto, Japan). Stereoselective chromatography was carried out on a [sequence] CBH HPLC column (100 × 3 mm inner dimension with 5 μM particle size; Sigma-Aldrich, Darmstadt, Germany) with a corresponding 10 × 3 mm guard column. Reversed phased chromatography was carried out using an ammonium acetate (NH4Ac) buffered aqueous mobile phase with isopropyl alcohol (IPA) as organic solvent. […] The order of elution of the enantiomers was obtained from available reference literature [43] or by applying enantiopure reference compounds to the chiral HPLC. […] However, in every other case where the order of elution was available, the (R)-enantiomer eluted first. Given the structural similarity of the investigated substances and the fact that separation was performed on the same column with almost identical mobile phases, we assume that this order of elution for our compound set is always the (R)- before the (S)-enantiomer.
(§4) Detection was performed with an API 4000 tandem mass spectrometer (AB SCIEX, Darmstadt, Germany) operating in multiple-reaction-monitoring mode. Quantification was performed using the Analyst 1.6.2 software (AB SCIEX, Darmstadt, Germany) and quantified by comparison to standard curves with known concentrations.
(§5) All uptake data were normalized to protein content to account for variation in the number of seeded sells. Transporter-mediated net uptake was calculated by subtracting uptake into empty vector-transfected control cells from uptake into transporter-transfected cells. Kinetic parameters were then determined after non-linear regression following the Michaelis–Menten equation (v = vmax × [S]/(Km + [S])) using GraphPad Prism (Version 5.01 for Windows, GraphPad Software, La Jolla, CA, USA). Vmax refers to the maximum transport velocity and Km is defined as the substance concentration required to reach half of vmax. The intrinsic clearance Clint was calculated as the quotient of vmax over Km.
(§6) HEK293 cells stably overexpressing wild-type or mutant OCT2 were incubated with 100 μM racemic substance for two minutes.

OCT2 [2] = target: T3, OCT2 (Homo sapiens, UniProt O15244); assay: as above; conditions: for Vmax ± SEM: net uptake; for Clint ± SEM: OCT2, quotient of vmax over Km
T3 sequence (O15244 1-555 S270A): T2 sequence (O15244 1-555 S270A)
Protocol: as §1, §2, §3, §4, §5, §6

OCT1 = target: T4, OCT1 (Homo sapiens, UniProt O15245); assay: Stereoselective uptake into OCT1-overexpressing HEK293 cells; conditions: for Vmax ± SEM: net uptake; for Clint ± SEM: quotient of vmax over Km; for Stereoselectivity Vmax: given as for (R) or for 1;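 on all read-outs here: enantiomers quantified inside cells by chiral HPLC-MS/MS, uptake normalized to total protein from bicinchoninic acid assay, substrates applied in HBSS+ buffer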
T4 sequence (O15245 1-554): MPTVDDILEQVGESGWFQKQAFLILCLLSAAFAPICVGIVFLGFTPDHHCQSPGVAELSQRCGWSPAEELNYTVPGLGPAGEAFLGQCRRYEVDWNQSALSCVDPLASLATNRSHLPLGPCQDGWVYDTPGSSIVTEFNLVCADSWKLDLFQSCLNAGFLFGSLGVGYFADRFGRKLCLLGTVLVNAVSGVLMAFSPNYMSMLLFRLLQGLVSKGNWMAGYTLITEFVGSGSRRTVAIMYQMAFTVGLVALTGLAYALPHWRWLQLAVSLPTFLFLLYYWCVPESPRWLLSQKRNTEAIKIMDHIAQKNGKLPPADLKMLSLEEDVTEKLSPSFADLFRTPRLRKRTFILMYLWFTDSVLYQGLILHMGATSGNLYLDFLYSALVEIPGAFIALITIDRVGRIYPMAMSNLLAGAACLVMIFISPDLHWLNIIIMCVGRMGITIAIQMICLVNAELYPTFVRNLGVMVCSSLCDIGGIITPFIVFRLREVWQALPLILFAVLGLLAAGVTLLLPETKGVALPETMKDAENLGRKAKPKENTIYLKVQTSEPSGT
Protocol: as §1, §2
(§7) Intracellularly accumulated test substances were quantified by HPLC-MS/MS analysis using a Shimadzu Nexera HPLC system with a SIL-30AC autosampler, a CTO-20AC column oven, a LC-30AD pump, and a CBM-20A controller (Shimadzu, Kyoto, Japan). Stereoselective chromatography was carried out on a [sequence] CBH HPLC column (100 × 3 mm inner dimension with 5 μM particle size; Sigma-Aldrich, Darmstadt, Germany) with a corresponding 10 × 3 mm guard column. Reversed phased chromatography was carried out using an ammonium acetate (NH4Ac) buffered aqueous mobile phase with isopropyl alcohol (IPA) as organic solvent. […] The order of elution of the enantiomers was obtained from available reference literature [43] or by applying enantiopure reference compounds to the chiral HPLC. […] Given the structural similarity of the investigated substances and the fact that separation was performed on the same column with almost identical mobile phases, we assume that this order of elution for our compound set is always the (R)- before the (S)-enantiomer.
as §4, §5

NET = NET (Homo sapiens, UniProt P23975); assay: Stereoselective uptake into NET-overexpressing HEK293 cells; conditions: for Vmax ± SEM: net uptake; for Clint ± SEM: quotient of vmax over Km; for Stereoselectivity ClInt / Stereoselectivity Vmax: given as for (S) or for 2;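 on all read-outs here: intracellular enantiomers quantified in cell lysates by chiral HPLC-MS/MS after a 2 min substrate incubation, with uptake normalized to total cellular protein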
NET, sequence (P23975 whole entry): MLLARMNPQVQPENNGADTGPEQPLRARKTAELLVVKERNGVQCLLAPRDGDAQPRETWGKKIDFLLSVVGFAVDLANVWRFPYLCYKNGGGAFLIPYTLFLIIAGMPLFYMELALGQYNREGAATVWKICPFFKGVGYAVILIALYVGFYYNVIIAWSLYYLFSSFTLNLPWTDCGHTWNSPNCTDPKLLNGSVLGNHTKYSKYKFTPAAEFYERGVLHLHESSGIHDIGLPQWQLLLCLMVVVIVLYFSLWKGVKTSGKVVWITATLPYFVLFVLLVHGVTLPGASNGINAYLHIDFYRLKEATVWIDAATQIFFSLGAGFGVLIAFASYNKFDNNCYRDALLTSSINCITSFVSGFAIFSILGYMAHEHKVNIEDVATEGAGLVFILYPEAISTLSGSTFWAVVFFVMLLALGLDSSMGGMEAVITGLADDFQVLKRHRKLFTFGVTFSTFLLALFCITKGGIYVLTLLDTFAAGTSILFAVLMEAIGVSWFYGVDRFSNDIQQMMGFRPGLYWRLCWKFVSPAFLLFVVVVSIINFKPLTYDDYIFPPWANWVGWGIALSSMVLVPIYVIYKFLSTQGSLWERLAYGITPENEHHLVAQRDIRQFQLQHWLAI

SERT [3] = target: T5, SERT (Homo sapiens, UniProt P31645);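 further: uptake into HEK293 cells stably expressing human SERT over 2 min, enantiomers measured in cell lysate by chiral HPLC-MS/MS, normalized to total protein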
T5 sequence (P31645 whole entry): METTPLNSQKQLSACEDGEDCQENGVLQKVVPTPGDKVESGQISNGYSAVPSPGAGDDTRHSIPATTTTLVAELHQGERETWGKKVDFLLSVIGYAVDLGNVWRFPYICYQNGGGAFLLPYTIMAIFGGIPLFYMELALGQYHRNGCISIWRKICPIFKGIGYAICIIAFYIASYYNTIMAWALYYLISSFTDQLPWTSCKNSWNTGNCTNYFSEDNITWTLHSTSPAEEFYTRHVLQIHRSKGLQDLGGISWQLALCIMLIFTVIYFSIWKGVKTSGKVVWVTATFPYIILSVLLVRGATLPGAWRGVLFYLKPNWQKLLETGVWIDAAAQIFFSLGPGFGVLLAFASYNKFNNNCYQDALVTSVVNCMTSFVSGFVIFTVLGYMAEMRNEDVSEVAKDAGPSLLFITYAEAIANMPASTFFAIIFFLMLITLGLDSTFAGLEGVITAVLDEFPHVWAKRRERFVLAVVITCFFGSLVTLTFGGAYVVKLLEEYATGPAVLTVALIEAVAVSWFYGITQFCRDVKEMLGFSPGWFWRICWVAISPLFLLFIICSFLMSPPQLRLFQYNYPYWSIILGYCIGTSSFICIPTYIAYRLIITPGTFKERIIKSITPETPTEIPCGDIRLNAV

DAT = DAT (Homo sapiens, UniProt Q01959); assay: Stereoselective uptake into DAT-overexpressing HEK293 cells; conditions: DAT;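 further: intracellular accumulation measured by chiral HPLC-MS/MS in stably transfected HEK293 cells, normalized to total protein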
DAT, sequence (Q01959 whole entry): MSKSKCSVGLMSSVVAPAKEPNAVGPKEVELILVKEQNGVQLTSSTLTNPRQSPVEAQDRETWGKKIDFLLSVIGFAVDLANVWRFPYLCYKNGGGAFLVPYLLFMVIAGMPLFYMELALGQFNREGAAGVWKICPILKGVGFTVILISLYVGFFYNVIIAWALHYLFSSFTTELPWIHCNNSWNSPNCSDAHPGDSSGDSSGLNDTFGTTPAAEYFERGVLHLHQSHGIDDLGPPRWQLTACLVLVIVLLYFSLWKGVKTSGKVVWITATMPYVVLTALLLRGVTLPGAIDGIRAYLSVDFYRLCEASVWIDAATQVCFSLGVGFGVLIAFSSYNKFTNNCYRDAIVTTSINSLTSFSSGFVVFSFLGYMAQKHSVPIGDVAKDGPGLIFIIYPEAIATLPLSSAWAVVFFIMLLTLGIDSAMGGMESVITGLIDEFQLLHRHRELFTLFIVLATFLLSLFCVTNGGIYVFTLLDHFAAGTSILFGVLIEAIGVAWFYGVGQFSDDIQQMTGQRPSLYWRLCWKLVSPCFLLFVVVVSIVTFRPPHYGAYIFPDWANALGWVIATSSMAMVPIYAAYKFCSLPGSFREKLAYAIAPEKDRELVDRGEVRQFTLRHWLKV
Protocol: as §1, §2, §7, §4, §5

SERT [4] = target: T5, SERT; assay: Stereoselective uptake into SERT-overexpressing HEK293 cells; conditions: for Clint ± SEM: SERT, quotient of vmax over Km;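 on all read-outs here: uptake into HEK293 cells stably expressing human SERT over 2 min, enantiomers measured in cell lysate by chiral HPLC-MS/MS, normalized to total protein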
[5] = OCT3, ratio between enantiomers
[6] = OCT3, ratio between enantiomers, given as for (R) or for 1 (first-eluting)
[7] = HEK293 cells overexpressing human OCT2, racemic substrate, two minutes
[8] = HEK293 cells overexpressing human OCT1, racemic substrate, two minutes
[9] = OCT1, ratio between enantiomers
[10] = given as for (R) or for 1 (first-eluting)
[11] = HEK293 cells overexpressing human NET, racemic substrate, two minutes
[12] = ratio between enantiomers, given as for (S) or for 2

## CNCC(O)c1ccc(O)c(OC)c1 (single isomer, unassigned) [Metanephrine-2, Metanephrine]
OCT2 A270S variant; given as for A270S, listed as (S)-Metanephrine
  Transporter selectivity: 1.47 fold
OCT3; OCT3
  Clint ± SEM: 26.0 mL × g Protein^−1 × min^−1
OCT3; [5]
  Stereoselectivity Vmax: 1.19 fold
OCT3; OCT3, ratio between enantiomers, given as for (R) or for 1 (also 1.00-fold for 1/2)
  Stereoselectivity ClInt: 1.00 fold
OCT3; [6]
  Stereoselectivity Km: 1.19 fold
OCT2 [1]; given as for (R) or for 1
  Stereoselectivity ClInt: 2.66 fold
  Stereoselectivity Vmax: 2.13 fold
OCT2 [1]; given as for (S) or for 2 (second-eluting)
  Stereoselectivity Km: 1.25 fold
OCT2 [2]; [7]
  Vmax ± SEM: 528 pmol × mg Protein^−1 × min^−1
OCT2 [2]
  Clint ± SEM: 7.75 mL × g Protein^−1 × min^−1
OCT1; [8]
  Vmax ± SEM: 1018 pmol × mg Protein^−1 × min^−1
OCT1; OCT1
  Clint ± SEM: 6.97 mL × g Protein^−1 × min^−1
OCT1; [9]
  Stereoselectivity Vmax: 1.06 fold
OCT1; OCT1, ratio between enantiomers, given as for (S) or for 2 (second-eluting)
  Stereoselectivity Km: 1.09 fold
OCT1; human, 2 min
  Stereoselectivity ClInt: 1.16 fold
NET; NET, result in words
  Saturable net uptake: No saturable net uptake
SERT [3]; human
  Stereoselectivity ClInt: 1.01 fold
DAT; result in words
  Saturable net uptake: No saturable net uptake
SERT [4]
  Stereoselectivity Km: 1.09 fold
  Stereoselectivity Vmax: 1.08 fold
  Clint ± SEM: 0.57 mL × g Protein^−1 × min^−1

## NCC(O)c1cccc(O)c1 (single isomer, unassigned) [Norphenylephrine-2, Norphenylephrine]
OCT2 A270S variant; given as for WT, listed as (S)-Norphenylephrine
  Transporter selectivity: 1.12 fold
OCT3; OCT3
  Clint ± SEM: 3.32 mL × g Protein^−1 × min^−1
OCT3; [5]
  Stereoselectivity Vmax: 3.88 fold
OCT3; [6]
  Stereoselectivity Km: 1.17 fold
OCT3; human, 2 min
  Stereoselectivity ClInt: 3.32 fold
OCT2 [1]; given as for (R) or for 1
  Stereoselectivity ClInt: 1.40 fold
  Stereoselectivity Vmax: 2.19 fold
OCT2 [1]; [10]
  Stereoselectivity Km: 1.57 fold
OCT2 [2]
  Clint ± SEM: 26.07 mL × g Protein^−1 × min^−1
OCT1; OCT1
  Clint ± SEM: 3.84 mL × g Protein^−1 × min^−1
OCT1; [9]
  Stereoselectivity Vmax: 1.08 fold
OCT1; OCT1, ratio between enantiomers, given as for (R) or for 1 (first-eluting)
  Stereoselectivity Km: 1.03 fold
OCT1; human, 2 min
  Stereoselectivity ClInt: 1.05 fold
NET; [11]
  Vmax ± SEM: 531 pmol × mg Protein^−1 × min^−1
NET; NET
  Clint ± SEM: 230 mL × g Protein^−1 × min^−1
NET; NET, ratio between enantiomers
  Stereoselectivity ClInt: 1.21 fold
  Stereoselectivity Vmax: 1.25 fold
SERT [3]; human
  Stereoselectivity ClInt: 1.53 fold
DAT; quotient of vmax over Km
  Clint ± SEM: 167 mL × g Protein^−1 × min^−1
DAT; [12]
  Stereoselectivity ClInt: 1.29 fold
  Stereoselectivity Vmax: 1.55 fold
DAT; ratio between enantiomers, given as for (S) or for 2 (second-eluting)
  Stereoselectivity Km: 1.20 fold
SERT [4]
  Stereoselectivity Km: 1.20 fold
  Stereoselectivity Vmax: 1.27 fold
  Clint ± SEM: 1.83 mL × g Protein^−1 × min^−1

## C[C@@H]1NCCc2cc(O)c(O)cc21 [Salsolinol-2, Salsolinol]
OCT2 A270S variant; given as for WT, listed as (S)-Salsolinol
  Transporter selectivity: 1.45 fold
OCT3
  Stereoselectivity ClInt: 1.21 fold
OCT3; HEK293 cells overexpressing human OCT3, racemic substrate, two minutes, net uptake
  Vmax ± SEM: 697 pmol × mg Protein^−1 × min^−1
OCT3; OCT3
  Clint ± SEM: 3.15 mL × g Protein^−1 × min^−1
OCT3; [5]
  Stereoselectivity Vmax: 1.01 fold
OCT3; OCT3, ratio between enantiomers, given as for (S) or for 2 (second-eluting)
  Stereoselectivity Km: 1.20 fold
OCT3; read-out: Km ± SEM, HEK293 cells overexpressing human OCT3, racemic substrate, two minutes, net uptake minus empty vector control
  Km: 222 µM
OCT2 [1]; [10]
  Stereoselectivity Km: 1.04 fold
OCT2 [1]; given as for (S) or for 2
  Stereoselectivity ClInt: 1.05 fold
  Stereoselectivity Vmax: 1.01 fold
OCT2 [2]; [7]
  Vmax ± SEM: 9160 pmol × mg Protein^−1 × min^−1
OCT2 [2]
  Clint ± SEM: 42.7 mL × g Protein^−1 × min^−1
OCT2 [2]; read-out: Km ± SEM, HEK293 cells overexpressing human OCT2, racemic substrate, two minutes, net uptake minus empty vector control
  Km: 213 µM
OCT1; [8]
  Vmax ± SEM: 1426 pmol × mg Protein^−1 × min^−1
OCT1; OCT1
  Clint ± SEM: 10.9 mL × g Protein^−1 × min^−1
OCT1; OCT1, ratio between enantiomers, given as for (R) or for 1 (also 1.00-fold for 1/2)
  Stereoselectivity ClInt: 1.00 fold
OCT1; read-out: Km ± SEM, HEK293 cells overexpressing human OCT1, racemic substrate, two minutes, net uptake minus empty vector control
  Km: 131 µM
NET; [11]
  Vmax ± SEM: 151 pmol × mg Protein^−1 × min^−1
NET; NET
  Clint ± SEM: 1.48 mL × g Protein^−1 × min^−1
NET; NET, ratio between enantiomers
  Stereoselectivity ClInt: 1.19 fold
  Stereoselectivity Vmax: 1.35 fold
NET; NET, ratio between enantiomers, given as for (S) or for 2 (second-eluting)
  Stereoselectivity Km: 1.13 fold
NET; read-out: Km ± SEM, HEK293 cells overexpressing human NET, racemic substrate, two minutes, net uptake minus empty vector control
  Km: 102 µM
SERT [3]
  Stereoselectivity ClInt: 2.48 fold
SERT [4]
  Stereoselectivity Km: 1.85 fold
  Stereoselectivity Vmax: 1.34 fold
  Clint ± SEM: 0.71 mL × g Protein^−1 × min^−1
SERT [4]; HEK293 cells overexpressing human SERT, racemic substrate, two minutes, net uptake
  Vmax ± SEM: 171 pmol × mg Protein^−1 × min^−1
SERT [4]; read-out: Km ± SEM, HEK293 cells overexpressing human SERT, racemic substrate, two minutes, net uptake minus empty vector control
  Km: 239 µM
